Experimental data: patent US8603806B2, “Materials and methods for cell-based assays” (The Ohio State Universtiy Research Foundation, priority 2005, dated 2013)
In brackets after ≈: the same amount, converted by molar mass. Entries after “also recorded” stand apart in the source; their conditions may differ. Like-named read-outs stand apart in the source and are kept apart here.

Key:
[1] = system: ES cells; test: 3-D cytotoxicity (proliferation) assay, ES-GFP cells in PET scaffolds, low density; type: cell-based; settings: for IC50: read-out: 3-D cultures Ig50; for Ig50 in 2-D as times of Ig50 in 3-D: ratio 2-D/3-D
Experimental: For the 3-D cytotoxicity assay, 25000 cells in 25 μl medium were seeded into each PET scaffold. After 6 h incubation to allow cell attachment, 180 μl medium were added to each well and incubated for another 18 h before transferring the seeded matrix to the center of the microbioreactor chamber containing 3 ml of the ES medium on the modified 96-well plate. The plates were then stacked onto a rotational shaker and put into a 37° C. CO2 incubator. The culture fluorescence was measured twice per day with a Cytofluor Series 4000 plate reader. Fluorescence signals from live cells were calculated as the values from the central well of the bioreactor minus the background from the surrounding medium and scaffold.
(§1) With the exponential-phase specific growth rate data, the cytotoxicity of various chemicals can be better evaluated by their Ig50 values defined as the concentration of the chemical causing 50% reduction in the exponential-phase specific cell growth rate.

[2] = system: ES cells; test: 2-D cytotoxicity assay, ES-GFP cells in 96-well plates; type: cell-based; settings: concentration causing 50% reduction in exponential-phase specific growth rate, drug added one day after inoculation; for IC50: read-out: 2-D cultures Ig50
Experimental: The 2-D cytotoxicity assay was performed in 96-well plates by inoculating 5000 cells into each well containing 150 μl of ES medium. The drug was added one day after inoculation. Fluorescent signals were measured twice per day in the culture plates. The fluorescence given by live cells was calculated as the signals obtained after replacing culture medium with the same volume of PBS minus the blanks.
as §1

[3] = system: ES cells; test: 3-D high-density ES tissue constructs cytotoxicity; type: cell-based; settings: for Extent of cell kill: 3-D high-density, at maximum dose; for EC50: 3-D high-density cell cultures, 50% of maximum fluorescence reduction, exposure four or six days after seeding; for Rf (resistance factor): ratio between EC50 and Ig50
Description: The effects of various drugs on ES cells grown in 3-D after reaching a high cell density (exposure four or six days after seeding the matrices) were studied and the results are shown in FIG. 14. EC50 (the concentration required for obtaining 50% of a maximum effect) is used to evaluate a drug's cytotoxicity effect on a high-density 3-D cell or tissue construct. Here, if the elimination of cells is considered as the maximum effect of a chemical, an EC50 is not always reached. […] For this case, the maximum effects were defined as the fluorescence reduction caused by the saturation concentration (DM and DPH) or a very high dose compared to doses used in 2-D assays (Penicillin G and 5-FU). In addition, it was also noticed that maximal effects changed along with time, so the time point with the largest value of the maximal effects was used for cytotoxicity definition. Rf (resistance factor) is defined as the ratio between EC50 and Ig50.

[4] = system: ES-GFP cells; test: Acute cytotoxicity live-cell kinetic assay, 3-D ES-GFP; type: cell-based; settings: high density 3-D ES-GFP, 2000 RFU; different doses
Experimental: For the live-cell kinetic assays, acute cellular events can be easily characterized with online continuous fluorescence measurements without human intervention. The 3-D cell-based assay system was thus applied to test the response of ES-GFP cells to a surfactant, Triton X-100 (Sigma Chemical Company, St. Louis, Mo.). ES-GFP cells in the 3-D system were cultured to reach a high density with 2000 RFU fluorescence intensity. After applying different doses of Triton X-100, the culture plate was immediately put into the plate reader (Cytofluor Series 4000) at 37° C., with the cycle number set at 80 and cycle time at 3 min. The mixing time before each reading was 10 seconds. […] In general, increasing the surfactant concentration in the medium increased cell death, which followed a first order kinetics as indicated by the linear semilogarithmic plot (FIG. 10B). Triton X-100 is a non-ionic detergent commonly used to solubilize membrane proteins. The specific death rate kd at each Triton X-100 concentration can be estimated from the negative slope of the semi-log plots. […] The loss in the fluorescence signal for the control experiment without the surfactant was negligible and the slight decrease could be attributed to a slow increase in the medium pH outside the CO2 incubator. GFP fluorescence is marginally affected by the solution pH when it is in the neutral pH range.

[5] = system: ES-GFP cells; test: Effect of fibronectin coating of PET matrix on ES-GFP cell growth; type: cell-based
Experimental: Similarly, ES-GFP cells were used to study the effects of fibronectin coating of the PET matrix on cell growth. Fibronectin is involved in many cellular processes, one of which is to serve as a general cell adhesion molecule to help cells anchor onto proteoglycan or collagen substrates. Fibronectin is a commonly used extracellular matrix protein to enhance cell adhesion on the tissue scaffold. PET matrices were soaked in 10 μg/ml fibronectin (Sigma Chemical Company, St. Louis, Mo.) for 12 hours before use. The fibronectin-coated matrices were then placed in the growth medium and seeded with ES-GFP cells from the top of the scaffolds. […] Also, cells cultured in the fibronectin-coated matrix reached a maximum fluorescence intensity of 4000 RFU that was ˜2.5 times of that without fibronectin coating at 128 h. […] Cell spreading can also stimulate cell proliferation and contributes to uniform cell distribution in the 3-D matrix, which in turn allowed more light emission from the matrix. It is noted that cells developed different morphologies in these two matrices, with large aggregates formed in the matrix without fibronectin coating (FIG. 9D). The formation of large cell aggregates could add additional mass transfer limitation and further reduce cell growth. The adhesion of cells to PET fibers is important to determine the cell growth in the 3-D matrix.

[6] = system: embryonic stem cell; settings: embryotoxicity test previously reported; cited from earlier work
[7] = system: embryonic stem cell; settings: embryotoxicity test previously reported; cited from earlier work; remark: listed apart in the source
[8] = system: HT-29-GFP
Description: (§2) Colon cancer is the third most frequently occurring cancer in the US and causes large numbers of deaths, second only to lung cancer. Treatment of progressed colon cancer involves surgical extraction combining chemotherapy and immunotherapy. The survival rate of colon cancer patients is only 55% due to the low effectiveness of these therapies. […] Butyric acid is a biological response modifier (BRM) and it acts synergistically with 5-FU against colorectal cancers by decreasing thymidine kinase mRNA. As a BRM, it can also increase cell specific productivity at the expense of inhibiting cell growth. […] In this case, the cytotoxicity of a chemical in 3-D cultures was defined as a concentration range of the chemical.

[9] = system: HT-29-GFP; settings: for times more resistance in tumor-like structure: compared with the results from 3-D proliferation assays (3-D low density cells); for time after drug adding at which fluorescence changed / effectiveness on high density colon cancer cells: tumor-like constructs
Description: as §2
Gemcitabine is an S-phase specific drug.

[10] = system: HT-29-GFP; test: HT-29-GFP proliferation assay, 2-D with cell counting; type: cell-based; settings: Homo sapiens, read-out: 2-D with cell counting (Ig50)
Description: as §2

[11] = system: HT-29; test: Perfusion culture of HT-29 in microfluidic bioreactor array; type: cell-based, human; settings: 2 μg/ml fed continuously from beginning of perfusion; vs control without drug
Experimental: A human colon cancer cell line HT-29 (ATCC: HTB-38™) was maintained in Dulbecco's Modified Eagle's Medium (DMEM, Gibco) supplemented with 10% fetal bovine serum (FBS, Gibco) in a cell culture incubator at 37° C. with 5% CO2. […] Then cells were diluted and seeded in a 96 well plate at around 5 cells per well. One green fluorescent colony was isolated and expanded in the absence of selective pressure geneticin (G-418, Gibco). The stability of the transfected cell line was verified by FACSCalibur (B-D) (>97%) compared to the negative control.
Before cell culture, the PET matrices were cut to small square patches (2.5 mm×3 mm) and then soaked in water and sterilized in an autoclave at 121° C. for 15 min. […] Then each seeded scaffold was transferred gently to a new well on the same 384-well plate, which was followed by fluorescence intensity measurement in the microplate reader at 485 nm excitation and 535 nm emission. The scaffolds with similar fluorescence intensity were selected and transferred to the wells in the middle two rows of the microbioreactor array. […]
Four 10 mL, syringes were autoclaved and filled with the maintenance media, which were then seated on a syringe pump (PHD 2000, Harvard Apparatus). […] Cell proliferation was analyzed twice a day with the specific plate definition scheme in the microplate reader. […]

[12] = concentration causing 50% reduction in exponential-phase specific growth rate, drug added one day after seeding

## O=C1NC(=O)C(c2ccccc2)(c2ccccc2)N1 [DPH, diphenylhydantoin]
[1]; [12]
  IC50: 39 µg/mL (≈ 155 µM)
[2]
  IC50: 30 µg/mL (≈ 119 µM)
[3]
  Extent of cell kill: 52.2%
  Rf (resistance factor): 15.4
[3]; 144 h, read-out: EC50
  EC50: 600 µg/mL (≈ 2380 µM)

## Triton X-100
[4]
  acute cellular response (loss in culture fluorescence): caused an acute cell death

## fibronectin
[5]; PET matrices soaked in 10 μg/ml fibronectin, without coating 0.0335
  specific growth rate: 0.0458 h⁻¹
[5]; at 128 h
  maximum fluorescence intensity relative to that without fibronectin coating: ~2.5 times
[5]; fibronectin-coated matrix, 128 h
  maximum fluorescence intensity: 4000 RFU
[5]; with fibronectin coating, without coating 20.7
  doubling time: 15.1 h
[5]; with vs without fibronectin coating
  enhancement of specific growth rate: 37%

## C[C@@H]1C[C@H]2[C@@H]3CCC4=CC(=O)C=C[C@]4(C)[C@@]3(F)[C@@H](O)C[C@]2(C)[C@@]1(O)C(=O)CO [DM, dexamethasone]
[1]; [12]
  IC50: 11.5 µg/mL (≈ 29.3 µM)
[1]
  Ig50 in 2-D as times of Ig50 in 3-D: 3 times
[2]
  IC50: 32 µg/mL (≈ 81.5 µM)
[3]
  Extent of cell kill: 80.9%
  Rf (resistance factor): 5.7
[3]; 144 h, read-out: EC50
  EC50: 65 µg/mL (≈ 166 µM)

## CC1(C)S[C@@H]2[C@H](NC(=O)Cc3ccccc3)C(=O)N2[C@H]1C(=O)O [Penicillin G, penicillin G]
[1]; [12]
  3-D cultures Ig50: 750 µg/mL
[1]
  Ig50 in 2-D as times of Ig50 in 3-D: 6 times
[2]
  2-D cultures Ig50: 4500 µg/mL
[6]
  ECVAM IC50: 2000 µg/mL
[3]
  EC50: 23000 µg/mL (≈ 68800 µM)
  Extent of cell kill: 62.3%
  Rf (resistance factor): 30.7
[7]
  ZEBET IC50: 2100 µg/mL

## CCCC(=O)[O-].[Na+] [Sodium butyrate, sodium butyrate]
[8]; 3-D low density, lowest concentration causing significant difference of fluorescent kinetics vs control
  3-D with fluorescence, cytotoxicity concentration: 2 to 8 mM
[8]; lowest concentration causing significant difference of fluorescent kinetics vs control
  2-D with fluorescence, cytotoxicity concentration: 8 to 32 mM
[9]
  times more resistance in tumor-like structure: (about 10 times
  time after drug adding at which fluorescence changed: changed one day
[9]; listed as sodium butyrate
  times more resistance in tumor-like structure: 10 times
  time after drug adding at which fluorescence changed: one
[9]; drug added at high density
  Tumor-like response assays, cytotoxicity concentration: 10 to 100 mM
[10]
  IC50: 2000 µM

## O=c1[nH]cc(F)c(=O)[nH]1 [5-FU, 5-fluorouracil]
[1]; [12]
  IC50: 0.035 µg/mL (≈ 0.269 µM)
[2]
  IC50: 0.045 µg/mL (≈ 0.346 µM)
[8]; human
  2-D with fluorescence, cytotoxicity concentration: 0.052 to 0.26 µg/mL
  3-D with fluorescence, cytotoxicity concentration: 0.26 to 1.3 µg/mL
[6]
  ECVAM IC50: 0.065 µg/mL
[11]
  effect on HT-29 proliferation in perfusion culture: significantly reduced cell proliferation; also recorded: significantly inhibited
[3]; 100 μg/ml, 3-D high density
  effect on ES tissue constructs: no significant effect
[3]
  Extent of cell kill: 20%
  Rf (resistance factor): >1000
[7]
  ZEBET IC50: 0.09 µg/mL
[9]; human
  Tumor-like response assays, cytotoxicity concentration: 10 to 100 µg/mL
[10]; HT-29-GFP 2-D
  IC50: < 0.26 µg/mL

## Nc1ccn([C@@H]2O[C@H](CO)[C@@H](O)C2(F)F)c(=O)n1 [Gemcitabine, gemcitabine]
[8]; human
  2-D with fluorescence, cytotoxicity concentration: 0.000625 mM
  3-D with fluorescence, cytotoxicity concentration: 1e-06 to 5e-06 mM
[9]
  times more resistance in tumor-like structure: (more than 1000 times
  effectiveness on high density colon cancer cells: non-effective)
[9]; human
  Tumor-like response assays, cytotoxicity concentration: >1 mM
[9]; listed as gemcitabine
  effectiveness on high density colon cancer cells: totally resistant
[10]; HT-29-GFP 2-D
  IC50: 0.005 µM
